The record followed here is PubChem BioAssay AID179 (DTP/NCI, 2004).

The subject of this assay is CEM cells HIV-1 protection, formazan growth assay. As to the kind of experiment: NCI AIDS Antiviral Assay. Conditions: for pIC50: measured here: growth of uninfected CEM cells. The essentials: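 Protection of CEM cells against HIV-1 was scored from cell growth (soluble formazan) across five concentrations, with parallel uninfected cells. Lack of protection may reflect toxicity.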

pEC50, pIC50: −log10 of the molar value. Where “and” joins values, the source holds several entries; their conditions need not be identical. Equal values may be shown once. Calls of active or inactive are those of the source.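 Rule for the calls: active = compounds giving half or more protection of infected cells from virus-caused growth loss, again on retest; inactive = the rest.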

In general, pEC50 refers to the EC50 on a negative log10 scale, so that one unit is a factor of ten. By pIC50 is commonly meant the negative decadic logarithm of the IC50, by convention in mol/L. A low value points to a large IC50.

On to `O=C1c2ccccc2-c2c1c(-c1ccccc1)c1n2C2(C(=O)c3ccccc3C2=O)C2C(=O)N(c3ccccc3)C(=O)C12` (centres undefined), for which the pEC50 is less than 3.70 and the pIC50 is 3.92.

Turning to `CC(=O)N(CN1C(=O)CCC1C(=O)O)c1ccccc1` (centres undefined), the result was inactive.

As for `C#CCC(O)c1ccc(OC)c(OCc2ccccc2)c1` (centres undefined), the pEC50 was less than 3.70 and the negative logarithm of the IC50 (pIC50) was 4.16.

Take `COc1cc2c3c(c1)ncn3C(=O)CCS2`: the pEC50 was less than 3.70 and the negative-log IC50 (pIC50) was less than 3.70.

Regarding `COc1ccc(C(C#N)NNC(=O)c2ccccc2O)cc1OC` (centres undefined), the pEC50 was less than 4.10 and the negative-log IC50 (pIC50) is 5.39.

For the molecule `Cc1cccc(C(C)C)c1NC(=O)CC1Sc2ccccc2NC1=O` (centres undefined), the pEC50 was less than 4.69.

Take `Cc1ccc(/C=C/C(=N/NC(=O)N/N=C(/C=C/c2ccc(C)cc2)C(C)(C)CN2CCCCC2)C(C)(C)CN2CCCCC2)cc1`: the pEC50 is less than 3.70 and the pIC50 was 5.52.

`Clc1nc(Cl)nc(-c2cccn2-c2ccccc2)n1`: the pEC50 is less than 3.70 and the pIC50 is 3.89.

`CC(C)=CCN(N=O)c1ncnc2nc[nH]c12`: the pEC50 is less than 3.70 and the pIC50 is less than 3.70.

Regarding `Brc1ccc(/C(N=N/C(=N\Sc2ccccc2)c2ccc(Br)cc2)=N/Sc2ccccc2)cc1`, the pEC50 is less than 4.30 and the pIC50 was less than 4.30.

Take `COC(=O)C1C2C1C1C=CC2n2c(=O)n(-c3ccccc3)c(=O)n21` (centres undefined): the pEC50 was less than 3.70 and the pIC50 was less than 3.70.

As for `CCOP(=O)(OCC)C(C)(C)OC(=O)NC#N`, the pEC50 was less than 3.70 and the pIC50 is less than 3.70.

On to `CCCC1(NC(=O)C(F)(F)F)CC(OC)OC2COC(c3ccccc3)OC21` (centres undefined), for which the pEC50 is less than 3.70 and the pIC50 is less than 3.70.

Take `Cc1c(N=Nc2ccc(Cl)cc2)c(C)n(C2OC(CO)C(O)C(O)C2O)c(=S)c1C#N` (centres undefined): the pEC50 is less than 3.70 and the pIC50 was 4.46.

Regarding `O=C(CC(=O)N1CCN(c2ccccn2)CC1)N1CCN(c2ccccn2)CC1`, the pEC50 was less than 4.01 and the pIC50 is less than 4.01.

Regarding `CN(C)c1ccc(C=C2C=CC=C2)cc1`, the pEC50 was less than 4.72 and the pIC50 is less than 4.72.

`O=C(NN1C(=O)C(Cl)C1c1cccc(Cl)c1)c1ccccc1O` (centres undefined): the pEC50 is less than 4.13 and the negative-log IC50 (pIC50) was less than 4.13.

On to `Cc1cccc(N=Nc2c(C)nn(C(=O)c3ccccc3)c2C)c1`, for which the outcome was inactive.

As for `Cc1ccc(/C=C2\CCCC(CN3CCCCC3)C2=O)cc1` (centres undefined), the pEC50 is less than 3.70 and the negative logarithm of the IC50 (pIC50) was 6.14.

As for `CN(CCNC(=O)c1cc(-c2ccccc2)nc2ccccc12)CCNC(=O)c1cc(-c2ccccc2)nc2ccccc12`, the pEC50 is less than 4.70 and the negative-log IC50 (pIC50) was 4.98.

Regarding `CS/C(C)=N/OC(=O)NCCCCNc1ccc(N=[N+]=[N-])cc1`, the pEC50 is less than 3.83 and the pIC50 was 4.46.

Take `CC(C)(C)NNC(=O)/C(=C/c1ccc(Oc2ccc(Cl)c(Cl)c2)cc1)NC(=O)c1ccccc1`: the pEC50 was less than 5.26 and the pIC50 was less than 5.26.

Regarding `CSc1nc2c(=O)oc(-c3ccc(Cl)cc3)nc2s1`, the pEC50 is less than 3.70 and the pIC50 is 3.96.

`CC(=O)OC1CCC2(C)C(C)C(C)CCC2(O)C1O` (centres undefined): the pEC50 is less than 3.70 and the pIC50 was 4.82.

Regarding `CN(C)c1ccc(/C=C/c2cc[n+](C)c3ccccc23)cc1`, the pEC50 is less than 3.70 and the pIC50 was 6.30.

As to `COc1ccc2c(c1)CCC1C3(CCCC21C=O)OCCO3` (centres undefined), the pEC50 is less than 3.78 and the pIC50 is less than 3.78.

Regarding `O=C(O)c1ccccc1C(=O)OC1CC2CCC1C2` (centres undefined), the pEC50 was less than 3.70 and the pIC50 was less than 3.70.

As for `O=[N+]([O-])c1cccc(-c2csc(NNC3=NC/C(=C/c4ccc5c(c4)OCO5)S3)n2)c1`, the pEC50 is less than 3.70 and the negative logarithm of the IC50 (pIC50) is 3.93.

Take `CCOC(=O)C(=O)Nc1ccccc1C(F)(F)F`: the pEC50 is less than 3.44 and the pIC50 is less than 3.44.

For the molecule `CC1CCCc2c1c1ccc3c(O)cccc3c1oc2=O` (centres undefined), the pEC50 is less than 5.15 and the pIC50 was less than 5.15.

Take `COc1ccc(NCc2cc(OC)c(OC)c(OC)c2)cc1`: the pEC50 was less than 5.70; the pIC50 was 6.67 and 6.50.

`CC(=O)NC(Cc1ccccc1)NC(=O)O` (centres undefined): the pEC50 was less than 3.70 and the negative-log IC50 (pIC50) was less than 3.70.

For `CN1CCN(c2nc3cc(F)ccc3n3cccc23)CC1`, the pEC50 is less than 3.70 and the negative-log IC50 (pIC50) was 4.56.

For `N/C(=N\N=C\c1cccs1)NO`, the pEC50 is less than 3.15 and the pIC50 is less than 3.15.

With `O=c1c2c3c(sc2nc2n1NC=NN2)CCCC3`, the pEC50 is less than 4.70 and the pIC50 is 5.07.

Consider `CC(=O)C(N=Nc1nc2ccccc2[nH]1)C(C)=O`, for which the pEC50 was less than 3.70 and the pIC50 is 4.70.

In the case of `CC1=C(C(=O)CC(=O)C(=O)NC2C3CC4CC(C3)CC2C4)Sc2ccccc2N1` (centres undefined), the pEC50 is less than 5.04 and the pIC50 was less than 5.04.

With `[Cu+2].[O-]/C(=N\N=C\c1ccccn1)c1ccccc1O.[O-]/C(=N\N=C\c1ccccn1)c1ccccc1O`, the pEC50 is less than 3.70 and the pIC50 is 4.99.

`[N-]=[N+]=NC1CC(n2ccc(=O)[nH]c2=O)OC1CO` (centres undefined) had a pEC50 of 5.54 and a pIC50 of 4.70.

With `CCO/C=C(/C#N)C(=O)OC`, the result was inactive.

On to `COc1cc(C2c3cc4c(cc3OC(NCCO)C2C)OCO4)cc(OC)c1O` (centres undefined), for which the pEC50 was less than 3.70 and the pIC50 is 5.50.

Turning to `Cc1cccc(N=C2NC(=O)C(CC(=O)Nc3ccc(Cl)cc3C)S2)c1` (centres undefined), the pEC50 was less than 4.73 and the pIC50 is less than 4.73.

As to `C=CC[C@]12CC[C@H](O)[C@@]1(C)CCC(=O)/C2=N\N`, the result was inactive.

Consider `C1#CCSCC#CCSC1`, for which the pEC50 was less than 4.37 and the pIC50 was less than 4.37.

Turning to `COc1cc(NS(=O)(=O)c2ccc(N)cc2)nc(OC)n1`, the pEC50 was less than 3.70 and the pIC50 is less than 3.70.

Turning to `COC(=O)C1C2C=CC(C2)N1[C@@H](C)c1ccccc1` (some centres undefined), the pEC50 was less than 4.55 and the pIC50 was less than 4.55.

On to `COc1cc2c(cc1OC)[C@@H](C(O)c1ccccc1)NCC2` (some centres undefined), for which the result was inactive.

On to `COc1ccc(N2C(=O)c3c4c(c5c([nH]c6ncccc65)c3C2=O)CCC(C(C)(C)C)C4)cc1` (centres undefined), for which the pEC50 is 3.72 and the pIC50 was less than 3.70.

Consider `CC(C)(C)OC(=O)N1CCCCC(CCCC#Cc2ccccc2)C1=O` (centres undefined), for which the pEC50 was less than 4.42 and the pIC50 was less than 4.42.

`O=S1(=O)OC(c2cc(Cl)c(O)c(Br)c2)(c2cc(Cl)c(O)c(Br)c2)c2ccccc21`: the pEC50 is 3.42 and the pIC50 was 3.30.

Regarding `C=CCOC1=C(OCC=C)C(C2COC(C)(C)O2)OC1=O` (centres undefined), the pEC50 is less than 3.70 and the pIC50 is 4.15.

`Cc1cc(S(=O)(=O)Nc2nc3ccccc3[nH]2)c(S)cc1Cl`: the pEC50 was less than 3.70 and the negative logarithm of the IC50 (pIC50) was 4.26.

Consider `Brc1cccc[n+]1Cc1cccc(C[n+]2ccccc2Br)c1`, for which the pEC50 is 7.20 and the pIC50 is 3.85.

For the molecule `COc1ccc(-c2coc3cc(O)ccc3c2=O)cc1`, the pEC50 is less than 3.70 and the pIC50 was less than 4.00.

As to `O=C1NC(=O)C(Cc2cccc(OCc3ccccc3)c2)C(=O)N1`, the pEC50 is less than 3.70 and the pIC50 was less than 3.70.

For `O=Nc1c(O)ccc2ccccc12.O=Nc1c(O)ccc2ccccc12.O=Nc1c([O-])ccc2ccccc12.[Fe+3]`, the pEC50 was less than 3.89 and the negative logarithm of the IC50 (pIC50) was 4.02.

For the molecule `O=c1c(O)c(-c2ccccc2)oc2ccccc12.[Zn+2]`, the pEC50 was less than 3.70 and the pIC50 was 4.88.

As for `OC1(c2ccccc2)CC2CCC(C1)N2CCCC(O)(c1ccccc1)c1ccccc1` (centres undefined), the pEC50 was less than 3.70 and the pIC50 is 4.54.

Regarding `O=C1c2ccccc2C(=O)N1C/C(Cl)=C/Cl`, the pEC50 is less than 3.70 and the pIC50 is less than 3.70.

Regarding `CCCNC(=O)N(C(C)(C)C)S(=O)(=O)c1ccc(Cl)cc1`, the result was inactive.

Consider `CCOC(=O)Cc1csc(/N=C\c2c(O)c3ccccc3oc2=O)n1`, for which the pEC50 was less than 3.70 and the pIC50 is 4.39.

In the case of `O=S1(=O)Cc2nc3ccccc3n2C1c1c(F)cccc1F` (centres undefined), the pEC50 is 4.53 and the pIC50 was 4.12.

In the case of `Cc1cccc2c1Oc1cc(Cl)ccc1C2NC(=O)CN(C)C` (centres undefined), the pEC50 is less than 4.11 and the pIC50 is 4.14.

Turning to `NC1=NS(=O)(=O)N=C(N)C1=NNc1cccc(Cl)c1`, the pEC50 was less than 3.08 and the negative-log IC50 (pIC50) is 3.86.

Take `Cn1c(=O)cc(C=Nc2ccc(-c3ccccc3)cc2)c2ccccc21`: the pEC50 is less than 4.00 and the pIC50 was 5.70.

For `N=C(N)n1[nH]c2c(c1=O)CCC2`, the pEC50 was less than 3.70 and the pIC50 is less than 3.70.

With `O=C(/C=C/c1ccccc1)Nc1ccccc1SCCCCl`, the pEC50 was less than 3.70 and the pIC50 was 5.02.

Consider `[O-][n+]1onc2ncccc21`, for which the pEC50 is less than 3.86 and the pIC50 was 4.71.

With `O=C(CSc1nnc(Cc2ccccc2)o1)Nc1ccc([N+](=O)[O-])cc1`, the pEC50 was less than 4.01 and the pIC50 was 4.02.

As to `O=C(O)c1nc2cc(C(F)(F)F)ccc2[nH]c1=O`, the pEC50 was less than 3.70 and the pIC50 is less than 3.70.

For the molecule `c1cc(-c2csc(-c3ccsc3)c2)cs1`, the pEC50 is less than 3.70 and the pIC50 was less than 3.70.

Regarding `CCOP(=O)(OCC)Oc1c(OC)c2[nH]c(C(=O)OC)cc2c2c(C(=O)O)c[nH]c12`, the pEC50 was less than 3.70 and the pIC50 is less than 3.70.

Turning to `COC(=O)c1ccc2cc1Nc1c(C#N)cnc(=S)n1-2`, the pEC50 is less than 3.22 and the pIC50 is 3.44.

Take `CN1C(=O)OC2CC/C=C\CCC2C1c1ccccc1` (centres undefined): the outcome was inactive.

Consider `CC(=O)OCCn1c(Cc2ccc(C)cc2)nn(C(C)=O)c1=O`, for which the pEC50 was less than 3.70 and the pIC50 is less than 3.70.

Regarding `O=C(O)c1cc2cccc(O)c2cc1O`, the pEC50 is less than 3.70 and the pIC50 was less than 3.70.
